Experimental data as given in US12077503B2, “Substituted cyclic amides and their use as herbicides” (FMC CORPORATION, priority 2015, dated 2024).

Key:
Type in all cases: in vivo
[1] = system: Kochia (Kochia scoparia); assay: Test A preemergence; conditions: Bassia scoparia, pre-emergence, 240 h, 0 to 100 scale (0 no effect, 100 complete control), read-out: Plant response rating, Kochia
Procedure, shortened: (§1)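 Compounds were formulated in a non-phytotoxic solvent mixture with surfactant and applied as a preemergence directed soil spray after seeding, or sprayed postemergence over plants 2 to 10 cm tall at the one- to two-leaf stage. Evaluation after about 10 d compared treated with untreated controls, using a scale from 0 (no effect) to 100 (complete control).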

[2] = system: giant foxtail (Setaria faberii); assay: Test A preemergence; conditions: Setaria faberi, pre-emergence, 240 h, 0 to 100 scale (0 no effect, 100 complete control), read-out: Plant response rating, Foxtail, Giant
Procedure, shortened: as §1

[3] = system: pigweed (Amaranthus retroflexus); assay: Test A preemergence; conditions: Amaranthus retroflexus, pre-emergence, 240 h, 0 to 100 scale (0 no effect, 100 complete control), read-out: Plant response rating, Pigweed
[4] = system: ragweed (common ragweed, Ambrosia elatior); assay: Test A preemergence; conditions: Ambrosia artemisiifolia, pre-emergence, 240 h, 0 to 100 scale (0 no effect, 100 complete control), read-out: Plant response rating, Ragweed
Procedure, shortened: as §1

[5] = system: ryegrass, Italian (Italian ryegrass, Lolium multiflorum); assay: Test A preemergence; conditions: Lolium multiflorum, pre-emergence, 240 h, 0 to 100 scale (0 no effect, 100 complete control), read-out: Plant response rating, Ryegrass, Italian
Procedure, shortened: as §1

[6] = system: Galium (catchweed bedstraw, Galium aparine); assay: Test A postemergence; conditions: Galium, post-emergence, 240 h, Postemergence
Procedure, shortened: as §1

[7] = system: Kochia (Kochia scoparia); assay: Test A postemergence; conditions: Bassia scoparia, post-emergence, 240 h, Postemergence
Procedure, shortened: as §1

[8] = system: barnyardgrass (Echinochloa crus-galli); assay: Test A postemergence; conditions: Echinochloa crus-galli, post-emergence, 240 h, Postemergence
Procedure, shortened: as §1

[9] = system: blackgrass (Alopecurus myosuroides); assay: Test A postemergence; conditions: Alopecurus myosuroides, post-emergence, 240 h, Postemergence
Procedure, shortened: as §1

[10] = system: corn (Zea mays); assay: Test A postemergence; conditions: Zea mays, post-emergence, 240 h, Postemergence
Procedure, shortened: as §1

[11] = system: giant foxtail (Setaria faberii); assay: Test A postemergence; conditions: Setaria faberi, post-emergence, 240 h, Postemergence
Procedure, shortened: as §1

[12] = system: pigweed (Amaranthus retroflexus); assay: Test A postemergence; conditions: Amaranthus retroflexus, post-emergence, 240 h, Postemergence
Procedure, shortened: as §1

[13] = system: ragweed (common ragweed, Ambrosia elatior); assay: Test A postemergence; conditions: Ambrosia artemisiifolia, post-emergence, 240 h, Postemergence
Procedure, shortened: as §1

[14] = system: ryegrass, Italian (Italian ryegrass, Lolium multiflorum); assay: Test A postemergence; conditions: Lolium multiflorum, post-emergence, 240 h, Postemergence
Procedure, shortened: as §1

[15] = system: wheat (Triticum aestivum); assay: Test A postemergence; conditions: Triticum aestivum, post-emergence, 240 h, Postemergence
Procedure, shortened: as §1

CN1C[C@H](c2ccc(OC(F)F)cc2)[C@@H](C(=O)Nc2ccccc2F)C1=O [Compound 1371] showed a pest or weed control at 500 g/ha ([1]; 500 g ai/ha, preemergence) of 90%, a pest or weed control at 125 g/ha ([1]; Preemergence, 125 g ai/ha) of 80% and a pest or weed control at 500 g/ha ([2]; 500 g ai/ha, preemergence) of 90%. For the same compound, the pest or weed control at 125 g/ha ([2]; Preemergence, 125 g ai/ha) was 90%, the pest or weed control at 500 g/ha ([3]; 500 g ai/ha, preemergence) was 90% and the pest or weed control at 125 g/ha ([3]; Preemergence, 125 g ai/ha) was 70%. For the same compound, the pest or weed control at 500 g/ha ([4]; 500 g ai/ha, preemergence) was 80%, the pest or weed control at 125 g/ha ([4]; Preemergence, 125 g ai/ha) was 70% and the pest or weed control at 500 g/ha ([5]; 500 g ai/ha, preemergence) was 50%. For the same compound, the pest or weed control at 125 g/ha ([5]; Preemergence, 125 g ai/ha) was 0%, the pest or weed control at 125 g/ha ([6]; 125 g ai/ha, visual rating about 10 d after treatment, read-out: Galium plant response rating (0 to 100 scale)) was 70% and the pest or weed control at 500 g/ha ([6]; 500 g ai/ha, visual injury, 0 to 100 scale (0 no effect, 100 complete control), approx. 10 d, read-out: Plant response rating, Galium) was 70%. It also gave a pest or weed control at 125 g/ha ([7]; 125 g ai/ha, visual rating about 10 d after treatment, read-out: Kochia plant response rating (0 to 100 scale)) of 50%, a pest or weed control at 500 g/ha ([7]; 500 g ai/ha, visual injury, 0 to 100 scale (0 no effect, 100 complete control), approx. 10 d, read-out: Plant response rating, Kochia) of 80% and a pest or weed control at 125 g/ha ([8]; 125 g ai/ha, visual rating about 10 d after treatment, read-out: Barnyardgrass plant response rating (0 to 100 scale, 0 no effect, 100 complete control)) of 80%. For the same compound, the pest or weed control at 500 g/ha ([8]; 500 g ai/ha, visual injury, 0 to 100 scale (0 no effect, 100 complete control), approx. 10 d, read-out: Plant response rating, Barnyardgrass) was 90%, the pest or weed control at 125 g/ha ([9]; 125 g ai/ha, visual rating about 10 d after treatment, read-out: Blackgrass plant response rating (0 to 100 scale)) was 40% and the pest or weed control at 500 g/ha ([9]; 500 g ai/ha, visual injury, 0 to 100 scale (0 no effect, 100 complete control), approx. 10 d, read-out: Plant response rating, Blackgrass) was 60%. It also gave a plant injury at 125 g/ha ([10]; 125 g ai/ha, visual rating about 10 d after treatment, read-out: Corn plant response rating (0 to 100 scale)) of 40%, a Corn plant response rating (crop injury, 0 = no effect, 100 = complete kill) at 500 g/ha ([10]; 500 g ai/ha, visual injury, 0 to 100 scale (0 no effect, 100 complete control), approx. 10 d) of 90% and a pest or weed control at 125 g/ha ([11]; 125 g ai/ha, visual rating about 10 d after treatment, read-out: Foxtail, Giant plant response rating (0 to 100 scale)) of 90%. For the same compound, the pest or weed control at 500 g/ha ([11]; 500 g ai/ha, visual injury, 0 to 100 scale (0 no effect, 100 complete control), approx. 10 d, read-out: Plant response rating, Foxtail, Giant) was 90%, the pest or weed control at 125 g/ha ([12]; 125 g ai/ha, visual rating about 10 d after treatment, read-out: Pigweed plant response rating (0 to 100 scale)) was 30% and the pest or weed control at 500 g/ha ([12]; 500 g ai/ha, visual injury, 0 to 100 scale (0 no effect, 100 complete control), approx. 10 d, read-out: Plant response rating, Pigweed) was 60%. It also gave a pest or weed control at 125 g/ha ([13]; 125 g ai/ha, visual rating about 10 d after treatment, read-out: Ragweed plant response rating (0 to 100 scale)) of 20%, a pest or weed control at 500 g/ha ([13]; 500 g ai/ha, visual injury, 0 to 100 scale (0 no effect, 100 complete control), approx. 10 d, read-out: Plant response rating, Ragweed) of 60% and a pest or weed control at 125 g/ha ([14]; 125 g ai/ha, visual rating about 10 d after treatment, read-out: Ryegrass, Italian plant response rating (0 to 100 scale)) of 30%. The pest or weed control at 500 g/ha ([14]; 500 g ai/ha, visual injury, 0 to 100 scale (0 no effect, 100 complete control), approx. 10 d, read-out: Plant response rating, Ryegrass, Italian) was 50%, the plant injury at 125 g/ha ([15]; 125 g ai/ha, visual rating about 10 d after treatment, read-out: Wheat plant response rating (0 to 100 scale)) was 10% and the plant injury at 500 g/ha ([15]; 500 g ai/ha, visual injury, 0 to 100 scale (0 no effect, 100 complete control), approx. 10 d, read-out: Plant response rating, Wheat) was 60%.
